Like-named read-outs stand apart in the source and are kept apart here.
Legend:
Format in all cases: in vivo
[1] = system: patients with atherosclerosis undergoing PCI; settings: for Agitation (Psychiatric disorders) / Chest Pain (General disorders and administration site conditions) / Diarrhea (Gastrointestinal disorders) / Dyspnea (Respiratory, thoracic, and mediastinal disorders) / Procedural Pain (Injury, poisoning, and procedural complications): treatment emergent adverse event
Experimental: The primary safety end point was severe bleeding not related to coronary-artery bypass grafting, according to the Global Use of Strategies to Open Occluded Coronary Arteries (GUSTO) criteria, at 48 hours. Several other bleeding definitions were also applied.

[2] = molecular target: T1, P2Y12 receptor (Homo sapiens, UniProt Q9H244); assay: Example 4: VerifyNow P2Y12 assay, platelet reactivity in PRU
T1 construct: from tissue; host or cells: platelets in whole blood of patients
Experimental: The study involved 12 patients who met the criteria of being 18-75 years of age, having coronary artery disease (CAD) documented by a previous MI or coronary revascularization, and taking 81 mg of aspirin daily. […] Use of non-steroidal anti-inflammatory agents was discouraged during study participation but not prohibited.
Each patient was administered a 30 μg/kg bolus of cangrelor followed immediately by a 2 hr infusion at a rate of 4.0 μg/kg/min. A loading dose of ticagrelor (180 mg) was given after 0.5 hr or 1.25 hr (n=6 for each). Blood for pharmacodynamic platelet function studies was taken after 0.5 or 1.25 hr (corresponding to the time of ticagrelor load, n=6 for each), and then at 1.75, 2, 2.25, 2.5, 2.75, 3, 4, and 5.25 hr. Patients were assigned randomly to receive either 6 (n=6) or 7 (n=6) doses of ticagrelor to be taken every 12 hours following the discontinuation of the infusion of cangrelor. On study day 5, each patient was administered a 30 μg/kg bolus of cangrelor followed immediately by a 2 hr infusion at a rate of 4.0 μg/kg/min. Blood for pharmacodynamic assessment was taken after 1 and 2 hr. Adverse events were queried throughout study participation that ended with a telephone interview performed on study day 10-12.
Pharmacodynamic assessment included light transmission aggregometry (LTA), VerifyNow® P2Y12 assay, vasodilator-stimulated phosphoprotein (VASP) index, and platelet activation measured with the use of flow cytometry. Assessment of LTA, VerifyNow®, and platelet activation with the use of flow cytometry was performed within 30 min of blood being taken. In the case of flow cytometry, samples were processed to fixation and then batched for analysis. For VASP, index samples were batched and processed as recommended by the vendor within 2 h of blood being taken. This approach limited the time from fixation of VASP index to flow analysis to less than 1 h.
LTA induced by 5 μM and 20 μM adenosine diphosphate (ADP) was quantified ex vivo (i.e. in non-adjusted platelet rich plasma). Platelet-poor plasma was set as 100% aggregation, and both maximal (peak) and terminal (at 300 s) aggregation were measured with a PAP4 aggregometer (BioData, Horsham, Pa.). VerifyNow® P2Y12 assay (Accumetrics Inc, San Diego, Calif.) that measures the effects of drugs on the P2Y12 receptor by activating platelets with prostaglandin El in addition to ADP was used in accordance with the instructions provided by the manufacturer. Platelet reactivity was expressed in P2Y12 reaction units (PRU). Activation of platelets was identified with the use of flow cytometry as previously described.^17. And to determine the VASP index, a commercially available kit (Diagnostica Stago, Inc, Parsippany NJ) was used. ^17 Schneider D J, Sobel B E. Streamlining the design of promising clinical trials: in-vitro testing of antithrombotic regimens and multiple agonists of platelet activation. Coron Artery Dis. 2009; 20:175-8.

[3] = molecular target: T1, P2Y12 receptor; assay: Example 2 substudy: platelet function by VerifyNow P2Y12 Assay
Experimental: Platelet function parameters were measured using the VerifyNow® P2Y12 Assay (Accumetrics, San Diego, Calif.). Samples were taken before study drug administration, at approximately 2 hours (during cangrelor/placebo infusion), and 10 hours or next day following randomization.

[4] = 48 hours, Non-CABG Related Bleeding, Safety, Cangrelor vs Clopidogrel
[5] = 48 hours, Non-CABG Related Bleeding, Safety, n/N
[6] = 48 hours, Non-CABG Related Bleeding, Safety, rate in parentheses
[7] = 48 hours, Non-CABG Related, Safety, Cangrelor vs Clopidogrel
[8] = 48 hours, Non-CABG Related, Safety, n/N
[9] = 48 hours, Non-CABG Related, Safety, rate in parentheses
[10] = 48 hours, non-CABG-related, safety population, Cangrelor vs Clopidogrel
[11] = 48 hours, safety population, n/N
[12] = Study Day 1, 1.75 h, Ticagrelor at 0.5 hr
[13] = Study Day 1, 1.75 h, Ticagrelor at 1.25 hr
[14] = Study Day 1, 2.0 h, Ticagrelor at 0.5 hr
[15] = Study Day 1, 2.0 h, Ticagrelor at 1.25 hr
[16] = Study Day 1, reference 0.5/1.25 h, All
[17] = Study Day 1, reference 0.5/1.25 h, Ticagrelor at 0.5 hr
[18] = Study Day 1, reference 0.5/1.25 h, Ticagrelor at 1.25 hr
[19] = Study Day 5, 1.0 h, Ticagrelor 6 doses
[20] = Study Day 5, 1.0 h, Ticagrelor 7 doses
[21] = Study Day 5, 2.0 h, Ticagrelor 6 doses
[22] = Study Day 5, 2.0 h, Ticagrelor 7 doses

T1 sequence (Q9H244 whole entry): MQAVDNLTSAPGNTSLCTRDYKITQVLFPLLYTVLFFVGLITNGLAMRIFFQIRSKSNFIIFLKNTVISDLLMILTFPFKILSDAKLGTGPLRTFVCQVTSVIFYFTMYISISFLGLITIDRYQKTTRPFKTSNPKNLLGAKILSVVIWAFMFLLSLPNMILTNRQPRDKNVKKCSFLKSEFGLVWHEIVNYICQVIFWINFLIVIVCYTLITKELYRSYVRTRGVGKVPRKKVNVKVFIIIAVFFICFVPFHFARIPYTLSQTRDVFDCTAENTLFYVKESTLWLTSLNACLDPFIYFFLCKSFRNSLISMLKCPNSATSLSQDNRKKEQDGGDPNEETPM

CSCCNc1nc(SCCC(F)(F)F)nc2c1ncn2[C@@H]1O[C@H](COP(=O)(O)OP(=O)(O)C(Cl)(Cl)P(=O)(O)O)[C@@H](O)[C@H]1O [Cangrelor, cangrelor]
rate of GUSTO-defined severe bleeding (primary safety end point) ([1]; 48 hours): 0.16% | BARC criteria Type 3 OR [1, 4]: 1.69 | BARC criteria Type 3a OR [1, 4]: 2.75 | BARC criteria Type 3b OR [1, 4]: 1.12 | BARC criteria Type 3c OR [1, 4]: 2.00 | BARC criteria Type 3 [1, 5]: 22/5529 | BARC criteria Type 3a [1, 5]: 11/5529 | BARC criteria Type 3b [1, 5]: 9/5529 | BARC criteria Type 3c [1, 5]: 2/5529 | BARC criteria Type 3 [1, 6]: (0.4) | BARC criteria Type 3a [1, 6]: (0.2) | BARC criteria Type 3b [1, 6]: (0.2) | BARC criteria Type 3c [1, 6]: (0.0) | ACUITY criteria Major bleeding OR [1, 7]: 1.72 | ACUITY criteria Major without ≧ 5 cm hematoma OR [1, 7]: 1.62 | ACUITY criteria Minor bleeding OR [1, 7]: 1.42 | ACUITY criteria Major bleeding [1, 8]: 235/5529 | ACUITY criteria Major without ≧ 5 cm hematoma [1, 8]: 42/5529 | ACUITY criteria Minor bleeding [1, 8]: 653/5529 | ACUITY criteria Major bleeding [1, 9]: (4.3) | ACUITY criteria Major without ≧ 5 cm hematoma [1, 9]: (0.8) | ACUITY criteria Minor bleeding [1, 9]: (11.8) | odds ratio, GUSTO-defined severe bleeding ([1]; 48 hours, cangrelor vs clopidogrel): 1.50 | GUSTO-defined moderate bleeding, Odds Ratio (95% CI) [1, 10]: 1.69 (0.85-3.37) | GUSTO-defined severe or life-threatening bleeding, Odds Ratio (95% CI) [1, 10]: 1.50 (0.53-4.22) | GUSTO-defined severe or moderate bleeding, Odds Ratio (95% CI) [1, 10]: 1.63 (0.92-2.90) | TIMI-defined major bleeding, Odds Ratio (95% CI) [1, 10]: 1.00 (0.29)-3.45) | TIMI-defined major or minor bleeding, Odds Ratio (95% CI) [1, 10]: 1.75 (0.73-4.18) | TIMI-defined minor bleeding, Odds Ratio (95% CI) [1, 10]: 3.00 (0.81-11.10) | Any blood transfusion, Odds Ratio (95% CI) ([1]; 48 hours, safety population, Cangrelor vs Clopidogrel): 1.56 (0.83-2.93) | adverse events that led to discontinuation of the study drug ([1]; in vivo): 0.5% | rate of adverse events related to treatment ([1]; in vivo): 20.2% | transient dyspnea ([1]; in vivo): 1.2% | Agitation (Psychiatric disorders) ([1]; 48 hours, safety population): (0.2) % | Chest Pain (General disorders and administration site conditions) ([1]; 48 hours, safety population): (1.0) % | Diarrhea (Gastrointestinal disorders) ([1]; 48 hours, safety population): (0.3) % | Dyspnea (Respiratory, thoracic, and mediastinal disorders) ([1]; 48 hours, safety population): (1.2) % | Procedural Pain (Injury, poisoning, and procedural complications) ([1]; 48 hours, safety population): (0.1) % | Agitation (Psychiatric disorders) [1, 11]: 11/5529 | Chest Pain (General disorders and administration site conditions) [1, 11]: 55/5529 | Diarrhea (Gastrointestinal disorders) [1, 11]: 15/5529 | Dyspnea (Respiratory, thoracic, and mediastinal disorders) [1, 11]: 64/5529 | Procedural Pain (Injury, poisoning, and procedural complications) [1, 11]: 4/5529 | VerifyNow IPR ([2]; Study Day 1, 1.75 h, All): 99 ± 1 | VerifyNow PRU ([2]; Study Day 1, 1.75 h, All): 3.8 ± 2.6 PRU | VerifyNow IPR [2, 12]: 99 ± 1 | VerifyNow PRU [2, 12]: 3.8 ± 2.6 PRU | VerifyNow IPR [2, 13]: 99 ± 1 | VerifyNow PRU [2, 13]: 3.7 ± 2.8 PRU | VerifyNow IPR ([2]; Study Day 1, 2.0 h, All): 98 ± 3 | VerifyNow PRU ([2]; Study Day 1, 2.0 h, All): 6.4 ± 7.5 PRU | VerifyNow IPR [2, 14]: 97 ± 2 | VerifyNow PRU [2, 14]: 6.9 ± 4.9 PRU | VerifyNow IPR [2, 15]: 98 ± 4 | VerifyNow PRU [2, 15]: 5.9 ± 9.9 PRU | VerifyNow IPR [2, 16]: 97 ± 3 | VerifyNow PRU [2, 16]: 7.3 ± 9.3 PRU | VerifyNow IPR [2, 17]: 97 ± 4 | VerifyNow PRU [2, 17]: 8.8 ± 12 PRU | VerifyNow IPR [2, 18]: 98 ± 3 | VerifyNow PRU [2, 18]: 5.8 ± 7.3 PRU | VerifyNow IPR ([2]; Study Day 5, 1.0 h, All): 99 ± 1 | VerifyNow PRU ([2]; Study Day 5, 1.0 h, All): 3.3 ± 2 PRU | VerifyNow IPR [2, 19]: 99 ± 1 | VerifyNow PRU [2, 19]: 2.8 ± 1.9 PRU | VerifyNow IPR [2, 20]: 98 ± 1 | VerifyNow PRU [2, 20]: 3.9 ± 2.1 PRU | VerifyNow IPR ([2]; Study Day 5, 2.0 h, All): 98 ± 3 | VerifyNow PRU ([2]; Study Day 5, 2.0 h, All): 4.5 ± 6.4 PRU | VerifyNow IPR [2, 21]: 99 ± 1 | VerifyNow PRU [2, 21]: 2.4 ± 1.9 PRU | VerifyNow IPR [2, 22]: 97 ± 3 | VerifyNow PRU [2, 22]: 6.5 ± 8.8 PRU | median PRU (VerifyNow P2Y12 assay) ([3]; 12-24 hours after discontinuation of the cangrelor infusion): 228 PRU | median PRU (VerifyNow P2Y12 assay) ([3]; during the study drug infusion (approx. 2 hours)): 93.5 PRU
